Experimental findings from ChEMBL document CHEMBL5316345, “Discovery of the Potent and Selective MC4R Antagonist PF-07258669 for the Potential Treatment of Appetite Loss” (J Med Chem, 2023) are described below.

Active and inactive are the calls of the source. No cut-off for these calls is given here.

Data set [1] is described as follows: Passive apparent permeability in MDCKII-LE cells. To be noted: dog, MDCK; read-out: permeability (converted). It counts as ADME, cell-based, Canis lupus familiaris.
Data set [2] is described as follows: Metabolic stability in human hepatocyte assessed as intrinsic clearance measured per million cells HPLC/UV/MS analysis. To be noted: hepatocytes, read-out: CLH. Type of data set: ADME, cell-based.
Data set [3] in a line: Lipophilicity, logD of compound at pH 7.4 by shake flask method. Type of data set: physicochemical. To be noted: buffer.
The target of data set [4] is Melanocortin receptor 3 (Homo sapiens, UniProt P41968). Nature of the data set: Displacement of [125I]-NDP-alpha-MSH from human MC3R expressed in CHO cells measured for 2 hrs by microbeta counter analysis. It counts as cell-based. A general note: Displacement assays read how much labelled ligand stays bound in the presence of the test substance.
Sequence of Melanocortin receptor 3 (P41968 whole entry): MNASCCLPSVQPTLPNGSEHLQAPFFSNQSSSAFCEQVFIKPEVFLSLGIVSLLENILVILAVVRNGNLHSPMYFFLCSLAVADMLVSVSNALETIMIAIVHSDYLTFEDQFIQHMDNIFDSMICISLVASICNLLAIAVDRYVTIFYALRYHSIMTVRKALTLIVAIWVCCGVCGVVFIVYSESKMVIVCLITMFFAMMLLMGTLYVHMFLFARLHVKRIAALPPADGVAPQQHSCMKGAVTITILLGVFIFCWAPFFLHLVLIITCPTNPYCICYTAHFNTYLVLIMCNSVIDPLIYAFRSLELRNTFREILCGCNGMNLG
The target in data set [5] is Melanocyte-stimulating hormone receptor (Homo sapiens, UniProt Q01726). Nature of the data set: Agonist activity at human MC1R expressed in CHO cells assessed as increase in alpha-MSH induced cAMP level measured for 60 mins. It counts as functional, cell-based. Background: Changes in cAMP serve as a functional read-out for many G protein-coupled receptors.
Sequence of Melanocyte-stimulating hormone receptor (Q01726 whole entry, looked up): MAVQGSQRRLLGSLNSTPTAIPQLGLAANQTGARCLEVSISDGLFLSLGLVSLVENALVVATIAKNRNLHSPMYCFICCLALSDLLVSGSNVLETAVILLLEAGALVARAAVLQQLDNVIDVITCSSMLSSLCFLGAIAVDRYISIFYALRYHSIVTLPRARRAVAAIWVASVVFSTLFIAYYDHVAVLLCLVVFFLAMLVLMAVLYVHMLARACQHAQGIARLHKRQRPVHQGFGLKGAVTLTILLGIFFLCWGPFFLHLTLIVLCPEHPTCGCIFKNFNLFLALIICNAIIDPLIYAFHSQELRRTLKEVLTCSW
Data set [6] concerns the target Melanocortin receptor 5 (Homo sapiens, UniProt P33032). Nature of the data set: Agonist activity at human MC5R expressed in CHO cells assessed as increase in alpha-MSH induced cAMP level measured for 60 mins. It counts as functional, cell-based.
A short description of data set [7]: Clearance in Wistar Han rat plasma at 1 mg/kg, iv measured at 0.033 to 24 hrs by LC-MS/MS analysis. It counts as ADME, organism-based. Particulars: time 0.033-24 hrs.
Data set [8] in a line: Half life in Beagle dog at 1 mg/kg, po measured at 0.25 to 24 hrs by LC-MS/MS analysis. To be noted: in vivo, time 0.25-24 hrs. Type of data set: ADME, organism-based, Canis lupus familiaris.
Data set [9] is described as follows: Tmax in Wistar Han rat at 5 mg/kg, po measured at 0.083 to 24 hrs by LC-MS/MS analysis. It counts as ADME, organism-based. To be noted: in vivo, time 0.083-24 hrs.
The nature of data set [10]: Cmax in Wistar Han rat at 5 mg/kg, po measured at 0.083 to 24 hrs by LC-MS/MS analysis. It counts as ADME, organism-based. On the set-up: dose 5 mg/kg, time upper 24 hrs, time lower 0.083 hrs, route po. Particulars: in vivo.
Data set [11] can be described thus: Cmax in Beagle dog at 1 mg/kg, po measured at 0.25 to 24 hrs by LC-MS/MS analysis. On the set-up: dose 1 mg/kg, time 0.25-24 hrs, route po. Particulars: in vivo. Type of data set: ADME, organism-based, Canis lupus familiaris.
Data set [12] is described as follows: AUC (0 to infinity) in Beagle dog at 1 mg/kg, iv measured at 0.033 to 24 hrs by LC-MS/MS analysis. Type of data set: ADME, organism-based, Canis lupus familiaris. On the set-up: time upper 24 hrs, dose 1 mg/kg, time lower 0.033 hrs, route iv. Particulars: in vivo.
Data set [13] can be described thus: AUC (0 to infinity) in Beagle dog at 1 mg/kg, po measured at 0.25 to 24 hrs by LC-MS/MS analysis. To be noted: in vivo. It counts as ADME, organism-based, Canis lupus familiaris. On the set-up: time upper 24 hrs, time lower 0.25 hrs, dose 1 mg/kg, route po.
A short description of data set [14]: Oral bioavailability in Wistar Han rat at 5 mg/kg measured at 0.083 to 24 hrs by LC-MS/MS analysis. Type of data set: ADME, organism-based. To be noted: in vivo, time 0.083-24 hrs.
For data set [15], the system named is Mus musculus. Nature of the data set: Effect on body weight in anorexia/cachexia mouse model assessed as cumulative body weight gain at 0.3 mg/kg, po administered twice a day for 20 days and measured at 1 to 21 days. Particulars: time 1-21 day. Type of data set: functional.
Data set [16] has as its system Mus musculus. Nature of the data set: Effect on body weight in anorexia/cachexia mouse model assessed as reduction in cumulative food intake at 3 mg/kg, po administered twice a day for 20 days and measured at 1 to 21 days. It counts as functional. On the set-up: scale not given: the % may be the effect or the level left. To be noted: time 20 day.
In data set [17] the target is cGMP-dependent 3',5'-cyclic phosphodiesterase (Homo sapiens, UniProt O00408). Nature of the data set: Inhibition of human PDE2A1.
Sequence of cGMP-dependent 3',5'-cyclic phosphodiesterase (O00408 whole entry): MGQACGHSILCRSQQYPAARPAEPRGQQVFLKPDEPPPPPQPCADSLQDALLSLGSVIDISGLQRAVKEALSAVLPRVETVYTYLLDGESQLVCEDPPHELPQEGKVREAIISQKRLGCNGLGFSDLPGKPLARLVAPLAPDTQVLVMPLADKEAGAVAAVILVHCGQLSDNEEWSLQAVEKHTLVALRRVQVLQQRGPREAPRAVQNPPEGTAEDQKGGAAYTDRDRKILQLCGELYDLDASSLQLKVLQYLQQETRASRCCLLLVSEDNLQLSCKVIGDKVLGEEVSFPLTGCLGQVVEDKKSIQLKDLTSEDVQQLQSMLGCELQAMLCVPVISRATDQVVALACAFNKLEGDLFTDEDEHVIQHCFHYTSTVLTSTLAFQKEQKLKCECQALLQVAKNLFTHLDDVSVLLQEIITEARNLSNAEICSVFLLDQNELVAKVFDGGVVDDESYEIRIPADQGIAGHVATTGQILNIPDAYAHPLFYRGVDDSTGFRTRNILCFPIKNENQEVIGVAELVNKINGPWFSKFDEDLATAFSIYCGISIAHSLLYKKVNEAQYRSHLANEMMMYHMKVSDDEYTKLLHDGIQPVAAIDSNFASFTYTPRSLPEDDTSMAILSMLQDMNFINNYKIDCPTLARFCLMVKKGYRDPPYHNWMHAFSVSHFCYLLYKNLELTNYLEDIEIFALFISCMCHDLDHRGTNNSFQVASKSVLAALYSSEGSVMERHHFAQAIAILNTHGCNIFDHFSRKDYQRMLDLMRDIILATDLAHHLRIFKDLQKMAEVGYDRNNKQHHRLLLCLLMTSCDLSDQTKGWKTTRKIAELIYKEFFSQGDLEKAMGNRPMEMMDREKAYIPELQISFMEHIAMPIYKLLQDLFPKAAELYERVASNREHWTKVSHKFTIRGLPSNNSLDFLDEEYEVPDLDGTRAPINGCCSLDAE
The target of data set [18] is 3',5'-cyclic-AMP phosphodiesterase 7B (Homo sapiens, UniProt Q9NP56). The data set is described as follows: Inhibition of human PDE7B.
Sequence of 3',5'-cyclic-AMP phosphodiesterase 7B (Q9NP56 whole entry): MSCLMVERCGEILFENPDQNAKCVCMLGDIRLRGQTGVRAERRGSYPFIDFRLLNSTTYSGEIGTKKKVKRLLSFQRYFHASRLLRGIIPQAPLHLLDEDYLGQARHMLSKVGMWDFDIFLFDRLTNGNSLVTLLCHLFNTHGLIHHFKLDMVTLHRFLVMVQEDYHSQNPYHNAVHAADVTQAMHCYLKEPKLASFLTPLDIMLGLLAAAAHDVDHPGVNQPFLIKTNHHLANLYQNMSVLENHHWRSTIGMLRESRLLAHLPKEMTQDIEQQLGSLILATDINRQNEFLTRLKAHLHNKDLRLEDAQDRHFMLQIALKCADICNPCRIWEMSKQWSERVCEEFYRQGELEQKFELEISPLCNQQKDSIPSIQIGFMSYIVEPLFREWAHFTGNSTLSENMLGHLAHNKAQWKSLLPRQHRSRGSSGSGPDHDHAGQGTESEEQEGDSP
Data set [19] deals with High affinity cGMP-specific 3',5'-cyclic phosphodiesterase 9A (Homo sapiens, UniProt O76083). The data set is described as follows: Inhibition of human PDE9A1.
Sequence of High affinity cGMP-specific 3',5'-cyclic phosphodiesterase 9A (O76083 whole entry): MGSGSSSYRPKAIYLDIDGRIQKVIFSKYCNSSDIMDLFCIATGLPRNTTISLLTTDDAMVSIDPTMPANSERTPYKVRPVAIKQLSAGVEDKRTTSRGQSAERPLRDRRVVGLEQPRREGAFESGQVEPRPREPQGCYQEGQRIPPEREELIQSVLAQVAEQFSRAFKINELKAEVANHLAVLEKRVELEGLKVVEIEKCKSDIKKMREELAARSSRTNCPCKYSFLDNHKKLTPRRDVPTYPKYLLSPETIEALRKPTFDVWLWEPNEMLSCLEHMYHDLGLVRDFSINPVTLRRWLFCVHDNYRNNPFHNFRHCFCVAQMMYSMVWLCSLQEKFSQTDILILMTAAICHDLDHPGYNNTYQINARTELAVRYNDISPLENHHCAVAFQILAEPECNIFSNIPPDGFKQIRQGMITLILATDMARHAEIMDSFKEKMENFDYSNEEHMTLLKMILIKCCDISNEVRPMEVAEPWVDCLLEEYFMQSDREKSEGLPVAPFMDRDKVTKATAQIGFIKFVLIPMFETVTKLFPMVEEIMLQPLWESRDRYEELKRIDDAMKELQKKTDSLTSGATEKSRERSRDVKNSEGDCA
The target of data set [20] is Dual 3',5'-cyclic-AMP and -GMP phosphodiesterase 11A (Homo sapiens, UniProt Q9HCR9). Nature of the data set: Inhibition of human PDE11A4.
Sequence of Dual 3',5'-cyclic-AMP and -GMP phosphodiesterase 11A (Q9HCR9 whole entry): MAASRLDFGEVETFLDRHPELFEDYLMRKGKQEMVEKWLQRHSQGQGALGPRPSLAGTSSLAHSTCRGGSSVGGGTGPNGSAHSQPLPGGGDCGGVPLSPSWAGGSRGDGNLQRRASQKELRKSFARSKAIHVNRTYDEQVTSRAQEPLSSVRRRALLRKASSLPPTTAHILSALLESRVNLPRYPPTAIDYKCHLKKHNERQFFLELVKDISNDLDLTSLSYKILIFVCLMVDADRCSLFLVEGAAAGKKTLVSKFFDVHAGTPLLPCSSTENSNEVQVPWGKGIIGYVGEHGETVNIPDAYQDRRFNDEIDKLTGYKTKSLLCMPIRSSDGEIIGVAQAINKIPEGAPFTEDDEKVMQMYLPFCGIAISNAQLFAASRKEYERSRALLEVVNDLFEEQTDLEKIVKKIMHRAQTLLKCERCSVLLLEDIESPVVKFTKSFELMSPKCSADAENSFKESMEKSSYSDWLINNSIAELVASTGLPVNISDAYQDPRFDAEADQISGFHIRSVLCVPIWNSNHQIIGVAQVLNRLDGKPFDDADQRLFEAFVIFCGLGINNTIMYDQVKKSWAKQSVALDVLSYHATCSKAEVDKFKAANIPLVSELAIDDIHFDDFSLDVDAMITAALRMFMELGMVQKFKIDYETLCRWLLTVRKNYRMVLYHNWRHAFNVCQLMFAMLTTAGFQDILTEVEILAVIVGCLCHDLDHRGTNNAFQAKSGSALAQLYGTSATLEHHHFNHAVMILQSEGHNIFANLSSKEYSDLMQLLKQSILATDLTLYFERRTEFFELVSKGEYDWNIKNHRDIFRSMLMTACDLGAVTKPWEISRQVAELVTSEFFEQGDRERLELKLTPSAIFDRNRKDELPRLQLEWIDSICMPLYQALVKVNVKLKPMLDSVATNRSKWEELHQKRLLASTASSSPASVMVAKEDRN

Sequence of Melanocortin receptor 5 (P33032 whole entry): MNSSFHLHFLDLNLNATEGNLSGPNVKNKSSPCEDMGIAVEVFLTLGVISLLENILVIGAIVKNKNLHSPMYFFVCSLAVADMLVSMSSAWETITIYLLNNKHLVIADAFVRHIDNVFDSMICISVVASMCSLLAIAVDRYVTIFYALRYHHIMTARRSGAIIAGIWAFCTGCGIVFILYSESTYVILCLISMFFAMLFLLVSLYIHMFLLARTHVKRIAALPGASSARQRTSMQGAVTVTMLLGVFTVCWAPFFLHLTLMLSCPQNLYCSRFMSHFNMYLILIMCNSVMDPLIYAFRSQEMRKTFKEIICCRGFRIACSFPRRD

For `COc1cc([C@@H](C)C(=O)N2CC[C@@]3(COc4cc(-c5ncccn5)c(C)nc4N3)C2)c(F)cn1`, in [1], the Papp is 0.467 ×10⁻⁶ cm/s. The hepatocyte CLint in [2] was determined as 12 µL/min/1e6 cells. Besides, the pH-dependent lipophilicity (logD) (commonly lipophilicity at a set pH, counting ionised and neutral species) in [3] stood at 2.6. Further, in [4], affinity was put at a Ki of 0.34 µM. In addition, the outcome in [5] and in data set [6] was inactive. Also, in data set [7], the clearance (in general, a measure of how efficiently the substance is removed, as volume per time) amounted to 21 mL/min/kg. In [8], the half-life (in general, how long it takes for the measured level to halve) was 3.6 h. In addition, in data set [9], the Tmax (as a rule, the time from dosing to the highest level) is 0.5 h. Also, the Cmax (as a rule, the peak of the concentration-time curve) in [10] stood at 600 ng/mL; in data set [11] it was 1470 ng/mL. Also, the figures for the exposure (AUC) in data set [12] and in [13] were 1660 ng·h/mL and 4610 ng·h/mL, respectively. Further, the bioavailability (as a rule, dose-corrected exposure relative to a reference, in per cent) in data set [14] turned out to be 28%. The Activity in data set [15] is reported as 2%; in [16], 40%. The 50% inhibitory concentration (IC50) in data set [17], in [18], in data set [19] and in data set [20] was greater than 50 µM in each case.
